# Biological target: not listed separately
# Test: Ability to inhibit the binding of [125I]CCK-8 to Cholecystokinin type B receptor in guinea pig cortex.
row,SMILES,IC50 [nM]
1,CCOC(=O)CN1C(=O)C(NC(=O)Nc2ccc(Cl)cc2)N=C(c2ccccc2)c2ccccc21 (configuration not stated),1
2,O=C(Nc1ccc(Cl)cc1)NC1N=C(c2ccccc2)c2ccccc2N(CC(=O)N2CCCC2)C1=O (configuration not stated),0.28

# Biological target: not listed separately
# Test: Ability to inhibit the binding of [125I]-gastrin to gastric glands in guinea pig.
row,SMILES,IC50 [nM]
1,CCOC(=O)CN1C(=O)C(NC(=O)Nc2ccc(Cl)cc2)N=C(c2ccccc2)c2ccccc21 (configuration not stated),3.3
2,O=C(Nc1ccc(Cl)cc1)NC1N=C(c2ccccc2)c2ccccc2N(CC(=O)N2CCCC2)C1=O (configuration not stated),0.5

# Biological target: T1, Cholecystokinin receptor type A (Rattus norvegicus, UniProt P30551)
# T1 sequence (P30551 whole entry): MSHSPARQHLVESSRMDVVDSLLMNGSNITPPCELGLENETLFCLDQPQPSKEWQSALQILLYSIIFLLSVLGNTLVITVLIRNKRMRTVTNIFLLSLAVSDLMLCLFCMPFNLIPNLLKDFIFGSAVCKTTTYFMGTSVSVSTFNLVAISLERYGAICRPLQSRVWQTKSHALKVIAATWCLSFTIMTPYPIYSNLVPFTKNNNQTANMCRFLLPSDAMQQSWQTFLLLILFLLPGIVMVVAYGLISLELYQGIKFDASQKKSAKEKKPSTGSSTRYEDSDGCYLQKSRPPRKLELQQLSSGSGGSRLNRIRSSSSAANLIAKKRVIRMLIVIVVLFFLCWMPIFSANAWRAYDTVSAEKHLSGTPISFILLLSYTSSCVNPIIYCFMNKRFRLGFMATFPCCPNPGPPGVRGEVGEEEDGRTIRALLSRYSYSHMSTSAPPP
# Test: Ability to inhibit the binding of [125I]CCK-8 to Cholecystokinin type A receptor in rat pancreas.
row,SMILES,IC50 [nM]
1,COc1cccc(NC(=O)NC2CCc3ccccc3N(CC(=O)OC(C)(C)C)C2=O)c1 (configuration not stated),62
2,Cc1cccc(NC(=O)N[C@H]2CCc3ccccc3N(CC(=O)N3CCCC3)C2=O)c1,1000
3,Cc1cccc(NC(=O)NC2CCc3ccccc3N(CC(=O)OC(C)(C)C)C2=O)c1 (configuration not stated),140
4,COc1cccc(NC(=O)N[C@H]2CCc3ccccc3N(CC(=O)N3CCCC3)C2=O)c1,335
5,Cc1cccc(NC(=O)NC2CCc3ccccc3N(CC(=O)N3CCCC3)C2=O)c1 (configuration not stated),130

# The next lines start with the values.
row,IC50 [nM],SMILES
1,28,COc1cccc(NC(=O)N[C@@H]2CCc3ccccc3N(CC(=O)N3CCCC3)C2=O)c1
2,7.5,CC(C)(C)OC(=O)CN1C(=O)C(NC(=O)c2ccc3ccccc3c2)CCc2ccccc21 (configuration not stated)
3,30,Cc1cccc(NC(=O)N[C@@H]2CCc3ccccc3N(CC(=O)N3CCCC3)C2=O)c1

# From ChEMBL document CHEMBL1126473, “Benzolactams as non-peptide cholecystokinin receptor ligands” (Bioorg Med Chem Lett, 1993)
